Laboratory results published in ChEMBL document CHEMBL4477239 (Bioorg Med Chem, 2016).

Experiments:
NCI-H1993 = experiment: Cytotoxicity against human NCI-H1993 cells assessed as growth inhibition after 72 hrs by CCK-8 assay; settings: NCI-H1993, 72 h
[1] = Intrinsic clearance in rat liver microsomes assessed per mg of protein at 1 uM preincubated for 5 mins followed by NADPH addition measured after 5 to 30 mins by LC-MS/MS analysis; format: ADME, Microsome; settings: read-out: CLH
[2] = Intrinsic clearance in human liver microsomes assessed per mg of protein at 1 uM preincubated for 5 mins followed by NADPH addition measured after 5 to 30 mins by LC-MS/MS analysis; format: ADME, Microsome; settings: read-out: CLH
Cytochrome P450 2C9 = Cytochrome P450 2C9 (Homo sapiens, UniProt P11712); experiment: Inhibition of CYP2C9 in human liver microsomes at 10 uM using sulfaphenazole as […] preincubated for 5 mins followed by NADPH addition measured after 20 mins by LC-MS/MS analysis; format: ADME
Chain of Cytochrome P450 2C9 (P11712 whole entry): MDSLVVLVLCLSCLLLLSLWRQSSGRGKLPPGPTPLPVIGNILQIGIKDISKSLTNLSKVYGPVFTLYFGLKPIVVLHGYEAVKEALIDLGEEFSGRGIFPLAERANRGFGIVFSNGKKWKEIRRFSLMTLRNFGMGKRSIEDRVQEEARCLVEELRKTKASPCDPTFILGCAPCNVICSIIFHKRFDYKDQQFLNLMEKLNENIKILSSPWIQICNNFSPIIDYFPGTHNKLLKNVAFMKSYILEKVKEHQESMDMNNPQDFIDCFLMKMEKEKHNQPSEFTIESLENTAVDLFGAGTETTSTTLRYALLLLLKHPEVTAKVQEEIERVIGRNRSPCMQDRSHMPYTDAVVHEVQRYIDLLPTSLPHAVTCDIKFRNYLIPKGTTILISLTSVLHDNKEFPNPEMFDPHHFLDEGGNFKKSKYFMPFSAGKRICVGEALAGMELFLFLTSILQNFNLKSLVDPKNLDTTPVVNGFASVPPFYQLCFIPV

Cytochrome P450 3A4 = Cytochrome P450 3A4 (Homo sapiens, UniProt P08684); experiment: Time-dependent inhibition of CYP3A4 in human liver microsomes at 10 uM using troleandomycin as […] preincubated with compound followed by NADPH addition by LC-MS/MS analysis; format: ADME
Chain of Cytochrome P450 3A4 (P08684 whole entry): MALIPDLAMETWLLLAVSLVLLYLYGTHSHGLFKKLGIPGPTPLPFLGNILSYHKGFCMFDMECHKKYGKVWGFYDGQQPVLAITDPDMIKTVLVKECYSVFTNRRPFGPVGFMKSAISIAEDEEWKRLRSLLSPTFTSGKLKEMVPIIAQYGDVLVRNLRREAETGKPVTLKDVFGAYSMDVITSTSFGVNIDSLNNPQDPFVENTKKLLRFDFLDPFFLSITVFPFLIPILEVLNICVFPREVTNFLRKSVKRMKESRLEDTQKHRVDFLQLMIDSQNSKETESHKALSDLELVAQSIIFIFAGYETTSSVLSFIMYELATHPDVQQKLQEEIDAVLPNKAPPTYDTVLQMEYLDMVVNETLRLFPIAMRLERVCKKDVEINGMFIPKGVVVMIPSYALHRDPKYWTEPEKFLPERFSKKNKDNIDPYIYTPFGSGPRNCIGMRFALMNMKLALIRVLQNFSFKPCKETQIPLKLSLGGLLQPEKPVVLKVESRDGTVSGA

Cytochrome P450 2D6 = Cytochrome P450 2D6 (Homo sapiens, UniProt P10635); experiment: Time-dependent inhibition of CYP2D6 in human liver microsomes at 10 uM using paroxetine as […] preincubated with compound followed by NADPH addition by LC-MS/MS analysis; format: ADME
Chain of Cytochrome P450 2D6 (P10635 whole entry): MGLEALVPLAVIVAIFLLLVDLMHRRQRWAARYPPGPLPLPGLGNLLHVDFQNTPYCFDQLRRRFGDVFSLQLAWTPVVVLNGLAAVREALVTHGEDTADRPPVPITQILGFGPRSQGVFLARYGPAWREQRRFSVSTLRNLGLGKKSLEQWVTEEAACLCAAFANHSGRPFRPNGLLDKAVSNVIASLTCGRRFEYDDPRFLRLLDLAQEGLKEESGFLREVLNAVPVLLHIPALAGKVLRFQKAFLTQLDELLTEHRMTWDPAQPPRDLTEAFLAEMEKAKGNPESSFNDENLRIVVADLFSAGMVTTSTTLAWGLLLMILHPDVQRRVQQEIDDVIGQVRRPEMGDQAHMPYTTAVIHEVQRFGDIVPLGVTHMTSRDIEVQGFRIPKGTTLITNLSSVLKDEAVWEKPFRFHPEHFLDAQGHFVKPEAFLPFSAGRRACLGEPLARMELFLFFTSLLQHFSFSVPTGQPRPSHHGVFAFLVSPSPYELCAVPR

Cytochrome P450 1A2 = biological target: T1, Cytochrome P450 1A2 (Homo sapiens, UniProt P05177); experiment: Time-dependent inhibition of CYP1A2 in human liver microsomes at 10 uM using furafylline as […] preincubated with compound followed by NADPH addition by LC-MS/MS analysis; format: ADME
T1 sequence (P05177 whole entry): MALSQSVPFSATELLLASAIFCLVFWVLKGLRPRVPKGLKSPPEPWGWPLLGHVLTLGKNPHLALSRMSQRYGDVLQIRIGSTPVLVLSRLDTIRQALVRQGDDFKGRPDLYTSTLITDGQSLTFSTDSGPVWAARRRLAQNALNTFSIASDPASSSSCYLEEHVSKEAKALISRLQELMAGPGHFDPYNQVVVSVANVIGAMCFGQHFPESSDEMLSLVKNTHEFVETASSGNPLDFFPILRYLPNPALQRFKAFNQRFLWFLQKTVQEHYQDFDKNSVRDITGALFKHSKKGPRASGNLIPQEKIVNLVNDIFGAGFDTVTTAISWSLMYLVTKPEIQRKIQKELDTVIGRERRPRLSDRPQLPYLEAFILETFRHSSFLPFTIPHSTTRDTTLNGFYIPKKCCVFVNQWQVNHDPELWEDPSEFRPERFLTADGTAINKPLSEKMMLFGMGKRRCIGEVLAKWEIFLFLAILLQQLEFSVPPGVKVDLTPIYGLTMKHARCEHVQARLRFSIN

[3] = biological target: Hepatocyte growth factor receptor (Homo sapiens, UniProt P08581)
Chain of Hepatocyte growth factor receptor (P08581 whole entry): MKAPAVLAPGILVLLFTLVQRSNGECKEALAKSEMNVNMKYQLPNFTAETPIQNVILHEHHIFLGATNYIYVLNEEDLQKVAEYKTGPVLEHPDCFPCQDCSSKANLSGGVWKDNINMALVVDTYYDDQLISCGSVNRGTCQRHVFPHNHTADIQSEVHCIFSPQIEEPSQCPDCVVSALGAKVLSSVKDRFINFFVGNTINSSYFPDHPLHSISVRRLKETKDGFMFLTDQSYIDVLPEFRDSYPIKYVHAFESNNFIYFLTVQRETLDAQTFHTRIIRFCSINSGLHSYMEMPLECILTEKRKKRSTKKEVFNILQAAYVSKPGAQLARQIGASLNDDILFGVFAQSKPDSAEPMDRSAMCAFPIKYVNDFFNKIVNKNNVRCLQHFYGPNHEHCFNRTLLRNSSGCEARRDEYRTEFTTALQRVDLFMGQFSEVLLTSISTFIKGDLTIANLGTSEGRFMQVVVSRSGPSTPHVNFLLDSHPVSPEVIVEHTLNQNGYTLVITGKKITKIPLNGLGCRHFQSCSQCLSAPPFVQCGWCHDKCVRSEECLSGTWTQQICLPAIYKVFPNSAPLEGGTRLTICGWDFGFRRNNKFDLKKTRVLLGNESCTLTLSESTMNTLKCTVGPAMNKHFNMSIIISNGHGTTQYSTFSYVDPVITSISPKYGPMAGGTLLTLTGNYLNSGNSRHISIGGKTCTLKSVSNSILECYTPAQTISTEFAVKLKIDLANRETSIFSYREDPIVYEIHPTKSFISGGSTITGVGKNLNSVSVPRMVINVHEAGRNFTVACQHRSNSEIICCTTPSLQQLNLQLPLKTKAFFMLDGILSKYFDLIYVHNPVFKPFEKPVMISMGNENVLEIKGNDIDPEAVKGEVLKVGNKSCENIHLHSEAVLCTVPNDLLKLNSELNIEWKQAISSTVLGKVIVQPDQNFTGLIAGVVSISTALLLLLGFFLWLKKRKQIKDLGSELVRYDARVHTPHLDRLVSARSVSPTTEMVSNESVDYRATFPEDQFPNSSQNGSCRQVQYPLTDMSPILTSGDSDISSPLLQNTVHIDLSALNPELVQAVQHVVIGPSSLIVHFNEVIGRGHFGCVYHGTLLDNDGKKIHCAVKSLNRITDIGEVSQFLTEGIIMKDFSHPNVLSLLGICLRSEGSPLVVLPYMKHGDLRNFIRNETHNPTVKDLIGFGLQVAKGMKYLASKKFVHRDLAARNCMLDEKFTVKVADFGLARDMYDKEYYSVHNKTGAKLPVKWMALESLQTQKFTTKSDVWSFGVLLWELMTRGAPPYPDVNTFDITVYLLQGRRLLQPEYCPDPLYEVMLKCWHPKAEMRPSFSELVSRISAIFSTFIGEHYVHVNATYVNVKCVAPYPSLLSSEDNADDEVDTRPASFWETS
Description: Inhibition of c-Met kinase (unknown origin) assessed as decrease in phosphorylation of TK substrate-biotin peptide preincubated for 5 to 10 mins followed by ATP addition measured after 30 mins by HTRF assay

## Cn1cc(-c2cnc3ncn(Cc4ccc5ncccc5c4)c3n2)cn1
NCI-H1993
  IC50: 617 nM

## CC(c1c(F)cc2ncccc2c1F)n1cnc2ncc(-c3cnn(CCO)c3)nc21 (stereo unspecified)
[1]
  microsomal CLint at 1 µM: 10 µL/min/mg
NCI-H1993
  IC50: 83.7 nM
[2]
  microsomal CLint at 1 µM: 2 µL/min/mg
Cytochrome P450 2C9
  inhibition (INH): Active
Cytochrome P450 3A4
  inhibition (INH): Not Active
Cytochrome P450 2D6
  inhibition (INH): Not Active
Cytochrome P450 1A2
  inhibition (INH): Not Active
[3]
  IC50: 1 nM

## CC(c1cc(F)c2ncccc2c1)n1cnc2ncc(-c3cnn(C)c3)nc21 (stereo unspecified)
NCI-H1993
  IC50: > 10000 nM
[3]
  IC50: 91.8 nM

## CC(c1cc(F)c2ncccc2c1)n1cnc2ncc(-c3ccccc3)nc21 (stereo unspecified)
NCI-H1993
  IC50: > 10000 nM
[3]
  IC50: 155 nM

## C[C@H](c1cc2cccnc2cc1F)n1cnc2ncc(-c3ccc(C(N)=O)c(F)c3)nc21
NCI-H1993
  IC50: 329 nM
[3]
  IC50: 2.79 nM

## Cn1cc(-c2cnc3nc(O)n(Cc4ccc5ncccc5c4)c3n2)cn1
NCI-H1993
  IC50: > 10000 nM
[3]
  IC50: > 1000 nM

## CCC(c1cc2cccnc2cc1F)n1cnc2ncc(-c3cnc4ccccc4c3)nc21 (stereo unspecified)
[3]
  IC50: 17.2 nM

## C1=C(c2cnc3ncn(Cc4ccc5ncccc5c4)c3n2)CCNC1
NCI-H1993
  IC50: 6660 nM
[3]
  IC50: 33.2 nM

## CCC(c1ccc2ncccc2c1F)n1cnc2ncc(-c3ccc(C(=O)NC)c(F)c3)nc21 (stereo unspecified)
[3]
  IC50: 7.7 nM

## Cc1c(C(C)n2cnc3ncc(-c4ccncc4)nc32)ccc2ncccc12 (stereo unspecified)
NCI-H1993
  IC50: 950 nM
[3]
  IC50: 4.4 nM

## c1ccc(-c2cnc3ncn(Cc4ccc5ncccc5c4)c3n2)cc1
NCI-H1993
  IC50: 7490 nM
[3]
  IC50: 17.6 nM

## CC(c1cc(F)c2ncccc2c1)n1cnc2ncc(-c3cn[nH]c3)nc21 (stereo unspecified)
NCI-H1993
  IC50: > 10000 nM
[3]
  IC50: 279 nM

## CCC(c1cc2cccnc2cc1F)n1cnc2ncc(-c3ccc(C(=O)OC)c(F)c3)nc21 (stereo unspecified)
[3]
  IC50: 18.1 nM

## CC(c1c(F)cc2ncccc2c1F)n1cnc2ncc(-c3cccc4ccccc34)nc21 (stereo unspecified)
[3]
  IC50: 23.8 nM

## CC(NC/N=C/c1cnc2[nH]ccc2c1)c1ccc2ncccc2c1 (stereo unspecified)
NCI-H1993
  IC50: 956 nM
[3]
  IC50: 3.3 nM

## CCC(c1cc2cccnc2cc1F)n1cnc2ncc(-c3ccc(C(N)=O)c(F)c3)nc21 (stereo unspecified)
NCI-H1993
  IC50: 226 nM
[3]
  IC50: 2.5 nM

## CC(NC/N=C/c1cnn(CCO)c1)c1ccc2ncccc2c1 (stereo unspecified)
NCI-H1993
  IC50: 148 nM
[3]
  IC50: 12.7 nM

## Nc1ccc(-c2cnc3ncn(Cc4ccc5ncccc5c4)c3n2)cc1
NCI-H1993
  IC50: 4950 nM
[3]
  IC50: 12.4 nM

## COC(=O)c1ccc(-c2cnc3ncn(C(C)c4ccc5ncccc5c4C)c3n2)cc1F (stereo unspecified)
[3]
  IC50: 5.9 nM

## Cc1c(C(C)n2cnc3ncc(-c4cnn(C)c4)nc32)ccc2ncccc12 (stereo unspecified)
NCI-H1993
  IC50: 206 nM
[3]
  IC50: 3.2 nM

## CCC(c1ccc2ncccc2c1F)n1cnc2ncc(-c3ccccc3)nc21 (stereo unspecified)
[3]
  IC50: 81 nM

## CC(NC/N=C/c1ccccc1)c1ccc2ncccc2c1 (stereo unspecified)
NCI-H1993
  IC50: 1220 nM
[3]
  IC50: 5.17 nM

## CC(NC/N=C/C1=CCNCC1)c1ccc2ncccc2c1 (stereo unspecified)
NCI-H1993
  IC50: 2660 nM
[3]
  IC50: 15.2 nM

## Cc1cc2ncccc2cc1C(C)n1cnc2ncc(-c3cnc4ccccc4c3)nc21 (stereo unspecified)
[3]
  IC50: 38.1 nM

## CC(c1cc2cccnc2cc1F)n1cnc2ncc(-c3cn[nH]c3)nc21 (stereo unspecified)
NCI-H1993
  IC50: 187 nM
[3]
  IC50: 3.6 nM

## CCC(c1cc2cccnc2cc1F)n1cnc2ncc(-c3cnn(C)c3)nc21 (stereo unspecified)
[3]
  IC50: 10.6 nM

## CCC(c1cc2cccnc2cc1F)n1cnc2ncc(-c3cnn(CCO)c3)nc21 (stereo unspecified)
[3]
  IC50: 9.3 nM

## FC(F)(F)c1ccc(-c2cnc3ncn(Cc4ccc5ncccc5c4)c3n2)cc1
NCI-H1993
  IC50: > 10000 nM
[3]
  IC50: 27.9 nM

## Cc1c(C(C)n2cnc3ncc(-c4cnc5ccccc5c4)nc32)ccc2ncccc12 (stereo unspecified)
NCI-H1993
  IC50: 450 nM
[3]
  IC50: 4.9 nM

## OCCn1cc(-c2cnc3ncn(Cc4ccc5ncccc5c4)c3n2)cn1
NCI-H1993
  IC50: 2320 nM
[3]
  IC50: 15.9 nM

## Cc1cc2ncccc2cc1C(C)n1cnc2ncc(-c3cnn(C)c3)nc21 (stereo unspecified)
[3]
  IC50: 32.6 nM

## CNC(=O)c1ccc(-c2cnc3ncn(C(C)c4cc5cccnc5cc4C)c3n2)cc1F (stereo unspecified)
[3]
  IC50: 31 nM

## COC(=O)c1ccc(/C=N/CNC(C)c2ccc3ncccc3c2)cc1F (stereo unspecified)
NCI-H1993
  IC50: 1110 nM
[3]
  IC50: 6.41 nM

## CCC(c1ccc2ncccc2c1F)n1cnc2ncc(-c3cnn(C)c3)nc21 (stereo unspecified)
[3]
  IC50: 13.5 nM

## Cc1c(C(C)n2cnc3ncc(-c4cn[nH]c4)nc32)ccc2ncccc12 (stereo unspecified)
NCI-H1993
  IC50: 599 nM
[3]
  IC50: 2.7 nM

## CCC(c1ccc2ncccc2c1F)n1cnc2ncc(-c3ccc(C(=O)OC)c(F)c3)nc21 (stereo unspecified)
[3]
  IC50: 39.2 nM

## Fc1ccccc1-c1cnc2ncn(Cc3ccc4ncccc4c3)c2n1
NCI-H1993
  IC50: > 10000 nM
[3]
  IC50: 24.6 nM
